Results published in patent US12528802B2, “Heterocyclic compound” (Takeda Pharmaceutical Company Limited, priority 2019, dated 2026).

Target: T1, glucosylceramide synthase (Homo sapiens, UniProt Q16739)
T1 construct: made in house; host or cells: Expi293F cells (transient expression, pcDNA3.3-TOPO vector); microsome fraction used as enzyme source
T1 sequence (Q16739 1-394): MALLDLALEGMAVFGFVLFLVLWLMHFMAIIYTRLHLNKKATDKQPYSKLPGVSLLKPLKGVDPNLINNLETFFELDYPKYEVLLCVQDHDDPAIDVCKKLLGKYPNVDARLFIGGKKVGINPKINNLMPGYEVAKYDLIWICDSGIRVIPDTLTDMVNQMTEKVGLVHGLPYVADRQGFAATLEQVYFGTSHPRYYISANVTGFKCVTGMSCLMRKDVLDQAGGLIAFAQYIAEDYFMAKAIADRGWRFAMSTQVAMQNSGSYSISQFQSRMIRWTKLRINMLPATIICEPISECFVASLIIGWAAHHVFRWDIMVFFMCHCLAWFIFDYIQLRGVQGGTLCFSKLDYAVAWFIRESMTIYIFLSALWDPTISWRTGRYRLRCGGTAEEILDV
Assay: Glucosylceramide synthase (GCS) enzyme assay, microsome fraction, C8 glucosylceramide quantified by Rapidfire MS/MS
Assay type: biochemical
Conditions: test compound 10 μM; 1.7 μM UDP-glucose, 3 μM C8 ceramide; room temperature 60 min; read-out: GCS enzyme inhibitory rate at 10 μM (%) (% of control)
Method: Glucosylceramide Synthase (GCS) Assay
In enzyme assay, a microsome fraction obtained by transient expression by Expi293F™ cells (catalog number: A14527, Thermo Fisher Scientific) was used as a glucosylceramide synthase source. Liposomal C8 ceramide and UDP-glucose were used as substrates. […] After the enzymatic reaction, the analysis was performed with Rapidfire MS/MS (API-4000™, SCIEX), and C8 glucosylceramide was quantified to evaluate the inhibitory activity of the test compound against glucosylceramide synthase activity.
PcDNA3.3TOPO vector (catalog number: K830001, Thermo Fisher Scientific) into which the human GCS gene was inserted was introduced into Expi293F™ Cells (catalog number: A14527, Thermo Fisher Scientific) by using ExpiFectamine™ 293 Transfection Kit (catalog number: A14525, Thermo Fisher Scientific). The cultured cells were dissolved in D-PBS (catalog number: 048-29805, Fuji Film Wako Pure Chemical Industries, Ltd.) containing 1 mM PMSF, and the solution was allowed to stand on ice for 30 minutes, and then subjected to cell disruption (homogenized). The disruption solution was centrifuged at 10,000×g for 20 minutes at 4° C., and the obtained supernatant was centrifuged at 142,400×g for 60 minutes at 4° C. The obtained precipitate was resuspended in a D-PBS solution containing 1 mM PMSF, and homogenized again to prepare as a microsome fraction. Protein quantification was performed by the CBB method.
A 1 mM compound solution prepared by dissolving the test compound in DMSO was added to a 384-well plate by 100 nL so that the final concentration of the test compound was 10 μM. Next, a substrate solution consisting of 3.4 μM UDP-glucose and 6 μM C8 ceramide was added by 5 μL, followed by an enzyme solution consisting of a 25 μg/mL microsome fraction by 5 μL. C8 ceramide was prepared from liposomes composed of 15 mol % C8 ceramide and 85 mol % dioleoyl phosphatidylcholine (1,2-dioleoyl-sn-glycero-3-phosphocholine: DOPC). The enzymatic reaction was carried out in a solution consisting of 20 mM tris-hydrochloric acid buffer (pH 7.5), 0.01% Tween 20, 0.01% bovine serum albumin and 1 mM dithiothreitol at room temperature for 60 min. Then, a solution consisting of 75% isopropanol and 1% formic acid containing 0.25 μM N-Octadecanoyl-D35-psichosine (catalog number: 1914, Matreya) as an internal standard substance was added by 60 μL to stop the enzymatic reaction. 5 μL of the centrifugal supernatant of the obtained reaction product was analyzed by Rapidfire MS/MS (Agilent Technologies) using API-4000™ (SCIEX), and the C8 glucosylceramide was quantified to evaluate the inhibitory activity of the test compound against the glucosylceramide synthase activity. The inhibitory activity of the test compound was evaluated when the C8 glucosylceramide level in the enzyme-free solution was considered as 100% inhibitory and the enzyme activity of the DMSO group in the absence of the compound was considered as 0% inhibitory.

SMILES | inhibition at 10 µM [%]
COc1ccccc1-c1nccc2c1CN(c1ccc(C3CC3)cc1)C2=O [Example 4, 2-(4-cyclopropylphenyl)-4-(2-methoxyphenyl)-2,3-dihydro-1H-pyrrolo[3,4-c]pyridin-1-one] | 99
COc1ccccc1-c1nccc2c1CN(c1ccc(Oc3ccccc3)cc1)C2=O [Example 5, 4-(2-methoxyphenyl)-2-(4-phenoxyphenyl)-2,3-dihydro-1H-pyrrolo[3,4-c]pyridin-1-one] | 100
COc1ccccc1-c1nccc2c1CN(c1ccc(C(F)(F)F)cc1)C2=O [Example 6, 4-(2-methoxyphenyl)-2-[4-(trifluoromethyl)phenyl]-2,3-dihydro-1H-pyrrolo[3,4-c]pyridin-1-one] | 95
COc1cc(F)ccc1-c1nccc2c1CN(c1ccc(F)cc1)C2=O [Example 7, 4-(4-fluoro-2-methoxyphenyl)-2-(4-fluorophenyl)-2,3-dihydro-1H-pyrrolo[3,4-c]pyridin-1-one] | 70
O=C1c2ccnc(-c3ccc(F)cc3OCC(F)(F)F)c2CN1c1ccc(F)cc1 [Example 13, 2-(4-fluorophenyl)-4-[4-fluoro-2-(2,2,2-trifluoroethoxy)phenyl]-2,3-dihydro-1H-pyrrolo[3,4-c]pyridin-1-one] | 63
O=C1c2ccnc(-c3ccc(F)cc3OCC(F)F)c2CN1c1ccc(F)cc1 [Example 16, 4-[2-(2,2-difluoroethoxy)-4-fluorophenyl]-2-(4-fluorophenyl)-2,3-dihydro-1H-pyrrolo[3,4-c]pyridin-1-one] | 73
COc1ccccc1-c1nccc2c1CN(c1ccc(C#N)cc1)C2=O [Example 18, 4-[4-(2-methoxyphenyl)-1-oxo-1,3-dihydro-2H-pyrrolo[3,4-c]pyridin-2-yl]benzonitrile] | 56
COc1ccccc1-c1nccc2c1CN(c1ccc(C)cc1)C2=O [Example 23, 4-(2-methoxyphenyl)-2-(4-methylphenyl)-2,3-dihydro-1H-pyrrolo[3,4-c]pyridin-1-one] | 99
COc1ccc(N2Cc3c(ccnc3-c3ccccc3OC)C2=O)cc1 [Example 24, 4-(2-methoxyphenyl)-2-(4-methoxyphenyl)-2,3-dihydro-1H-pyrrolo[3,4-c]pyridin-1-one] | 89
COc1ccccc1-c1nccc2c1CN(c1ccc(OC(F)F)cc1)C2=O [Example 25, 2-[4-(difluoromethoxy)phenyl]-4-(2-methoxyphenyl)-2,3-dihydro-1H-pyrrolo[3,4-c]pyridin-1-one] | 99
COc1ccccc1-c1nccc2c1CN(c1ccc(OC(F)(F)F)nc1)C2=O [Example 26, 4-(2-methoxyphenyl)-2-[6-(trifluoromethoxy)pyridin-3-yl]-2,3-dihydro-1H-pyrrolo[3,4-c]pyridin-1-one] | 92
COc1ccccc1-c1nccc2c1CN(c1ccc(OC(F)F)nc1)C2=O [Example 27, 2-[6-(difluoromethoxy)pyridin-3-yl]-4-(2-methoxyphenyl)-2,3-dihydro-1H-pyrrolo[3,4-c]pyridin-1-one] | 93
O=C1c2ccnc(-c3ccccc3OC(F)F)c2CN1c1ccc(F)cc1 [Example 28, 4-[2-(difluoromethoxy)phenyl]-2-(4-fluorophenyl)-2,3-dihydro-1H-pyrrolo[3,4-c]pyridin-1-one] | 84
COc1ccccc1-c1nccc2c1CN(c1ccc(OC(F)(F)F)cn1)C2=O [Example 29, 4-(2-methoxyphenyl)-2-[5-(trifluoromethoxy)pyridin-2-yl]-2,3-dihydro-1H-pyrrolo[3,4-c]pyridin-1-one] | 96
O=C1c2ccnc(-c3ccccc3N3CCOCC3)c2CN1c1ccc(F)cc1 [Example 30, 2-(4-fluorophenyl)-4-[2-(morpholin-4-yl)phenyl]-2,3-dihydro-1H-pyrrolo[3,4-c]pyridin-1-one] | 91
CSc1ccccc1-c1nccc2c1CN(c1ccc(F)cc1)C2=O [Example 31, 2-(4-fluorophenyl)-4-[2-(methylsulfanyl)phenyl]-2,3-dihydro-1H-pyrrolo[3,4-c]pyridin-1-one] | 93
COc1ccccc1-c1nccc2c1CN(c1ccc(C(F)(F)F)cn1)C2=O [Example 32, 4-(2-methoxyphenyl)-2-[5-(trifluoromethyl)pyridin-2-yl]-2,3-dihydro-1H-pyrrolo[3,4-c]pyridin-1-one] | 93
COc1cnc(C)cc1-c1nccc2c1CN(c1ccc(F)cc1)C2=O [Example 33, 2-(4-fluorophenyl)-4-(5-methoxy-2-methylpyridin-4-yl)-2,3-dihydro-1H-pyrrolo[3,4-c]pyridin-1-one] | 68
COC(=O)c1ccc(-c2nccc3c2CN(c2ccc(F)cc2)C3=O)c(OC(F)F)c1 [Example 34, methyl 3-(difluoromethoxy)-4-[2-(4-fluorophenyl)-1-oxo-2,3-dihydro-1H-pyrrolo[3,4-c]pyridin-4-yl]benzoate] | 83
COc1ccccc1-c1nccc2c1CN(c1ccc(OC(F)F)cn1)C2=O [Example 39, 2-[5-(difluoromethoxy)pyridin-2-yl]-4-(2-methoxyphenyl)-2,3-dihydro-1H-pyrrolo[3,4-c]pyridin-1-one] | 93
NC(=O)c1ccc(-c2nccc3c2CN(c2ccc(F)cc2)C3=O)c(OC(F)F)c1 [Example 40, 3-(difluoromethoxy)-4-[2-(4-fluorophenyl)-1-oxo-2,3-dihydro-1H-pyrrolo[3,4-c]pyridin-4-yl]benzamide] | 54
O=C1c2ccnc(-c3ccccc3OCC(F)(F)F)c2CN1c1ccc(F)cc1 [Example 42, 2-(4-fluorophenyl)-4-[2-(2,2,2-trifluoroethoxy)phenyl]-2,3-dihydro-1H-pyrrolo[3,4-c]pyridin-1-one] | 94
COc1ccccc1-c1nccc2c1CN(c1ccc(F)cn1)C2=O [Example 43, 2-(5-fluoropyridin-2-yl)-4-(2-methoxyphenyl)-2,3-dihydro-1H-pyrrolo[3,4-c]pyridin-1-one] | 95
Cn1ccc(N2Cc3c(ccnc3-c3ccc(F)cc3OCC(F)(F)F)C2=O)n1 [Example 45, 4-[4-fluoro-2-(2,2,2-trifluoroethoxy)phenyl]-2-(1-methyl-1H-pyrazol-3-yl)-2,3-dihydro-1H-pyrrolo[3,4-c]pyridin-1-one] | 89
CCOC(=O)c1ccc(-c2nccc3c2CN(c2ccc(F)cc2)C3=O)c(OC)c1 [Example 48, ethyl 4-[2-(4-fluorophenyl)-1-oxo-2,3-dihydro-1H-pyrrolo[3,4-c]pyridin-4-yl]-3-methoxybenzoate] | 70
COc1ccccc1-c1nccc2c1CN(c1ccc(OCC(F)(F)F)cc1)C2=O [Example 50, 4-(2-methoxyphenyl)-2-[4-(2,2,2-trifluoroethoxy)phenyl]-2,3-dihydro-1H-pyrrolo[3,4-c]pyridin-1-one] | 99
O=C1c2ccnc(-c3ccccc3OCC(F)(F)F)c2CN1c1ccc(F)cn1 [Example 51, 2-(5-fluoropyridin-2-yl)-4-[2-(2,2,2-trifluoroethoxy)phenyl]-2,3-dihydro-1H-pyrrolo[3,4-c]pyridin-1-one] | 99
O=C1c2ccnc(-c3ccc(F)cc3OC(F)F)c2CN1c1ccc(F)cn1 [Example 52, 4-[2-(difluoromethoxy)-4-fluorophenyl]-2-(5-fluoropyridin-2-yl)-2,3-dihydro-1H-pyrrolo[3,4-c]pyridin-1-one] | 67
